Measurements published in patent US20080269306A1, “Antidepressant Medicament Comprising Idazoxan and a Selective Serotonin Reuptake Inhibitor” (ALPHA 2 PHARMACEUTICA AB, priority 2004, published 2008).

Key:
[1] = test system: dopamine output in the medial prefrontal cortex; test: Microdialysis: dopamine output in the medial prefrontal cortex of freely moving rats; assay type: in vivo, rat; details: for effect on dopamine output in the medial prefrontal cortex: citalopram alone, or low dose of Idazoxan added to citalopram; for DOPAMINE Medial Prefrontal Cortex, mean values: n = 5
Description: (§1) Adult male BK1:WR (Wistar) rats weighing 230-390 g were used in all experiments. Animals arrived at least five days prior to experimental use and were housed (4 per cage [Makrolon IV]) in the animal facility under standard laboratory conditions with a 12 h light/dark cycle with lights on at 6.00 a.m. All experiments were performed between 8.00 a.m. and 6.00 p.m. Food and water were available ad lib. All experiments were approved by, and conducted in accordance with, the local Animal Ethics Committee (Stockholms Norra och Södra Försöksdjursetiska Kommittéer) (permits no. N216/00, N11/00). The probe implantation and dialysis procedure, as well as the biochemical analyses, were similar to those previously described (Hertel et al 1996, […] et al 1999). Anesthetized male BKI:WR (Wistar) rats (B&K Universal, Sollentuna, Sweden; sodium pentobarbital, 60 mg/kg, intraperitoneal; i.p.) were implanted with dialysis probes in the medial prefrontal cortex (mPFC) [AP: +2.6; ML: -0.6; DV: -5.2], relative to bregma and dural surface (Paxinos and Watson 1998). Dialysis occurred through a semipermeable membrane (AN69 Hospal) with an active surface length of 4 mm. Dialysis experiments were conducted approximately 48 h after surgery in freely moving rats. The dialysis probe was perfused with a physiological perfusion solution (147 mM sodium chloride, 3.0 mM potassium chloride, 1.3 mM calcium chloride, 1.0 mM magnesium chloride, and 1.0 mM sodium phosphate, pH 7.4) at a rate of 2.5 μl/min set by a microinfusion pump (Harvard Apparatus, Holliston, Mass.). On-line quantification of noradrenaline (NA) or dopamine (DA) in the dialysate was accomplished by high pressure liquid chromatography coupled to electrochemical detection. The placement of the probe was later verified in slices stained with neutral red. 2-Way Anova (treatment×time) followed by Neuman-Keuls Post Hoc comparison test.

[2] = test system: noradrenaline output in the medial prefrontal cortex; test: Microdialysis: noradrenaline output in the medial prefrontal cortex of freely moving rats; assay type: in vivo, rat; details: for effect on noradrenaline output in the medial prefrontal cortex: citalopram alone, or low dose of Idazoxan added to citalopram; for NORADRENALINE Medial Prefrontal Cortex, mean values: n = 5
Description: as §1

[3] = awake freely moving rat, low dose of Idazoxan added to citalopram
[4] = TIME 30 min, after citalopram 5 mg/kg s.c., before saline/idazoxan
[5] = TIME 60 min, after citalopram 5 mg/kg s.c., before saline/idazoxan
[6] = TIME 90 min, after citalopram 5 mg/kg s.c., before saline/idazoxan
[7] = TIME 120 min, citalopram 5 mg/kg s.c., then saline 1 ml/kg or idazoxan 1.5 mg/kg s.c. after the 90 min sample
[8] = TIME 150 min, citalopram 5 mg/kg s.c., then saline 1 ml/kg or idazoxan 1.5 mg/kg s.c. after the 90 min sample
[9] = TIME 180 min, citalopram 5 mg/kg s.c., then saline 1 ml/kg or idazoxan 1.5 mg/kg s.c. after the 90 min sample
[10] = TIME 210 min, citalopram 5 mg/kg s.c., then saline 1 ml/kg or idazoxan 1.5 mg/kg s.c. after the 90 min sample
[11] = TIME 240 min, citalopram 5 mg/kg s.c., then saline 1 ml/kg or idazoxan 1.5 mg/kg s.c. after the 90 min sample
[12] = TIME 270 min, citalopram 5 mg/kg s.c., then saline 1 ml/kg or idazoxan 1.5 mg/kg s.c. after the 90 min sample

Q: How did the “effect on dopamine output in the medial prefrontal cortex” value ([1]; awake freely moving rat) turn out when `c1ccc2c(c1)OCC(C1=NCCN1)O2` (racemic) [Idazoxan, 2-(1,4-benzodioxan-2-yl)-2-imidazoline] was run?
A: significant increase

Q: What about the “duration of the increase in dopamine output” value [1, 3] of the same compound?
A: approximately 2 hours

Q: What about the “effect on noradrenaline output in the medial prefrontal cortex” value ([2]; awake freely moving rat) of the same compound?
A: significant increase

Q: And the “duration of the increase in noradrenaline output” value [2, 3]?
A: approximately 2 hours

Q: What does the source list for `CN(C)CCCC1(c2ccc(F)cc2)OCc2cc(C#N)ccc21` (stereo not drawn) [Citalopram + Saline, Citalopram]?
A: DOPAMINE Medial Prefrontal Cortex, mean values [1, 4]: 129.4 % Baseline; DOPAMINE Medial Prefrontal Cortex, mean values [1, 5]: 104.5 % Baseline; DOPAMINE Medial Prefrontal Cortex, mean values [1, 6]: 109.1 % Baseline; DOPAMINE Medial Prefrontal Cortex, mean values [1, 7]: 127.8 % Baseline; DOPAMINE Medial Prefrontal Cortex, mean values [1, 8]: 110.3 % Baseline; DOPAMINE Medial Prefrontal Cortex, mean values [1, 9]: 97.7 % Baseline; DOPAMINE Medial Prefrontal Cortex, mean values [1, 10]: 88.0 % Baseline; DOPAMINE Medial Prefrontal Cortex, mean values [1, 11]: 104.5 % Baseline; DOPAMINE Medial Prefrontal Cortex, mean values [1, 12]: 94.1 % Baseline; effect on dopamine output in the medial prefrontal cortex ([1]; awake freely moving rat): does not per se affect; NORADRENALINE Medial Prefrontal Cortex, mean values [2, 4]: 127.8 % Baseline; NORADRENALINE Medial Prefrontal Cortex, mean values [2, 5]: 118.8 % Baseline; NORADRENALINE Medial Prefrontal Cortex, mean values [2, 6]: 105.5 % Baseline; NORADRENALINE Medial Prefrontal Cortex, mean values [2, 7]: 114.6 % Baseline; NORADRENALINE Medial Prefrontal Cortex, mean values [2, 8]: 103.2 % Baseline; NORADRENALINE Medial Prefrontal Cortex, mean values [2, 9]: 81.6 % Baseline; NORADRENALINE Medial Prefrontal Cortex, mean values [2, 10]: 88.7 % Baseline; NORADRENALINE Medial Prefrontal Cortex, mean values [2, 11]: 83.7 % Baseline; NORADRENALINE Medial Prefrontal Cortex, mean values [2, 12]: 87.9 % Baseline; effect on noradrenaline output in the medial prefrontal cortex ([2]; awake freely moving rat): does not per se affect
